Laboratory results: ChEMBL document CHEMBL4138123, “Design, synthesis and biological evaluation of novel pyrazolochalcones as potential modulators of PI3K/Akt/mTOR pathway and inducers of apoptosis in breast cancer cells” (Eur J Med Chem, 2017)

Experiments:
Type in all cases: functional
[1] = test system: NCI-H226; assay: Cytotoxicity against human NCI-H226 cells assessed as cell growth at 10 uM after 48 hrs by sulforhodamine B assay relative to control; conditions: NCI-H226, 48 h, read-out: Activity
[2] = test system: MDA-MB-468; assay: Cytotoxicity against human MDA-MB-468 cells assessed as growth inhibition after 48 hrs by sulforhodamine B assay; conditions: MDA-MB-468, 48 h
[3] = test system: U-251; assay: Cytotoxicity against human U251 cells assessed as cell growth at 10 uM after 48 hrs by sulforhodamine B assay relative to control; conditions: U-251, 48 h, read-out: Activity
[4] = test system: SF-539; assay: Cytotoxicity against human SF539 cells assessed as cell growth at 100 uM after 48 hrs by sulforhodamine B assay relative to control; conditions: SF-539, 48 h, read-out: Activity
[5] = test system: U-251; assay: Cytotoxicity against human U251 cells assessed as cell growth at 1 uM after 48 hrs by sulforhodamine B assay relative to control; conditions: U-251, 48 h, read-out: Activity
[6] = test system: HT-29; assay: Cytotoxicity against human HT-29 cells assessed as cell growth at 0.1 uM after 48 hrs by sulforhodamine B assay relative to control; conditions: HT-29, 48 h, read-out: Activity
[7] = test system: NCI-H226; assay: Cytotoxicity against human NCI-H226 cells assessed as cell growth at 0.01 uM after 48 hrs by sulforhodamine B assay relative to control; conditions: NCI-H226, 48 h, read-out: Activity
[8] = test system: OVCAR-8; assay: Cytotoxicity against human OVCAR8 cells assessed as cell growth at 1 uM after 48 hrs by sulforhodamine B assay relative to control; conditions: OVCAR-8, 48 h, read-out: Activity
[9] = test system: MCF7; assay: Cytotoxicity against human MCF7 cells assessed as cell growth at 10 uM after 48 hrs by sulforhodamine B assay relative to control; conditions: MCF7, 48 h, read-out: Activity
[10] = test system: HCT-15; assay: Cytotoxicity against human HCT15 cells assessed as cell growth at 10 uM after 48 hrs by sulforhodamine B assay relative to control; conditions: HCT-15, 48 h, read-out: Activity
[11] = test system: CCRF-CEM; assay: Cytotoxicity against human CCRF-CEM cells assessed as cell growth at 0.1 uM after 48 hrs by sulforhodamine B assay relative to control; conditions: read-out: Activity
[12] = test system: DU-145; assay: Cytotoxicity against human DU145 cells assessed as cell growth at 1 uM after 48 hrs by sulforhodamine B assay relative to control; conditions: DU-145, 48 h, read-out: Activity
[13] = test system: NCI-H23; assay: Cytotoxicity against human NCI-H23 cells assessed as cell growth at 0.1 uM after 48 hrs by sulforhodamine B assay relative to control; conditions: NCI-H23, 48 h, read-out: Activity
[14] = test system: UACC-257; assay: Cytotoxicity against human UACC257 cells assessed as cell growth at 1 uM after 48 hrs by sulforhodamine B assay relative to control; conditions: UACC-257, 48 h, read-out: Activity
[15] = test system: SK-MEL-5; assay: Cytotoxicity against human SK-MEL-5 cells assessed as cell growth at 100 uM after 48 hrs by sulforhodamine B assay relative to control; conditions: SK-MEL-5, 48 h, read-out: Activity
[16] = test system: Hs-578T; assay: Cytotoxicity against human Hs 578T cells assessed as cell growth at 0.1 uM after 48 hrs by sulforhodamine B assay relative to control; conditions: read-out: Activity
[17] = test system: PC-3; assay: Cytotoxicity against human PC3 cells assessed as cell growth at 0.01 uM after 48 hrs by sulforhodamine B assay relative to control; conditions: PC-3, 48 h, read-out: Activity
[18] = test system: COLO 205; assay: Cytotoxicity against human COLO205 cells assessed as cell growth at 0.1 uM after 48 hrs by sulforhodamine B assay relative to control; conditions: COLO 205, 48 h, read-out: Activity
[19] = test system: M14; assay: Cytotoxicity against human M14 cells assessed as growth inhibition after 48 hrs by sulforhodamine B assay; conditions: M14, 48 h
[20] = test system: NCI/ADR-RES; assay: Cytotoxicity against human NCI/ADR-RES cells assessed as cell growth at 1 uM after 48 hrs by sulforhodamine B assay relative to control; conditions: read-out: Activity
[21] = test system: SF-539; assay: Cytotoxicity against human SF539 cells assessed as cell growth at 1 uM after 48 hrs by sulforhodamine B assay relative to control; conditions: SF-539, 48 h, read-out: Activity
[22] = test system: DU-145; assay: Cytotoxicity against human DU145 cells assessed as cell growth at 0.01 uM after 48 hrs by sulforhodamine B assay relative to control; conditions: DU-145, 48 h, read-out: Activity
[23] = test system: NCI/ADR-RES; assay: Cytotoxicity against human NCI/ADR-RES cells assessed as cell growth at 0.1 uM after 48 hrs by sulforhodamine B assay relative to control; conditions: read-out: Activity
[24] = test system: OVCAR-4; assay: Cytotoxicity against human OVCAR4 cells assessed as cell growth at 0.1 uM after 48 hrs by sulforhodamine B assay relative to control; conditions: OVCAR-4, 48 h, read-out: Activity
[25] = test system: PC-3; assay: Cytotoxicity against human PC3 cells assessed as cell growth at 100 uM after 48 hrs by sulforhodamine B assay relative to control; conditions: PC-3, 48 h, read-out: Activity
[26] = test system: OVCAR-3; assay: Cytotoxicity against human OVCAR3 cells assessed as cell growth at 10 uM after 48 hrs by sulforhodamine B assay relative to control; conditions: OVCAR-3, 48 h, read-out: Activity
[27] = test system: OVCAR-4; assay: Cytotoxicity against human OVCAR4 cells assessed as cell growth at 100 uM after 48 hrs by sulforhodamine B assay relative to control; conditions: OVCAR-4, 48 h, read-out: Activity
[28] = test system: SF-539; assay: Cytotoxicity against human SF539 cells assessed as cell growth at 0.1 uM after 48 hrs by sulforhodamine B assay relative to control; conditions: SF-539, 48 h, read-out: Activity
[29] = test system: MDA-MB-435; assay: Cytotoxicity against human MDA-MB-435 cells assessed as cell growth at 0.01 uM after 48 hrs by sulforhodamine B assay relative to control; conditions: MDA-MB-435, 48 h, read-out: Activity
[30] = test system: MDA-MB-435; assay: Cytotoxicity against human MDA-MB-435 cells assessed as cell growth at 1 uM after 48 hrs by sulforhodamine B assay relative to control; conditions: MDA-MB-435, 48 h, read-out: Activity
[31] = test system: SR; assay: Cytotoxicity against human SR cells assessed as cell growth at 0.01 uM after 48 hrs by sulforhodamine B assay relative to control; conditions: read-out: Activity
[32] = test system: SW-620; assay: Cytotoxicity against human SW620 cells assessed as cell growth at 0.1 uM after 48 hrs by sulforhodamine B assay relative to control; conditions: SW-620, 48 h, read-out: Activity
[33] = test system: MDA-MB-468; assay: Cytotoxicity against human MDA-MB-468 cells assessed as cell growth at 10 uM after 48 hrs by sulforhodamine B assay relative to control; conditions: MDA-MB-468, 48 h, read-out: Activity
[34] = test system: SK-MEL-28; assay: Cytotoxicity against human SK-MEL-28 cells assessed as cell growth at 1 uM after 48 hrs by sulforhodamine B assay relative to control; conditions: SK-MEL-28, 48 h, read-out: Activity
[35] = test system: CCRF-CEM; assay: Cytotoxicity against human CCRF-CEM cells assessed as cell growth at 1 uM after 48 hrs by sulforhodamine B assay relative to control; conditions: read-out: Activity

Structure (SMILES)	growth at 10 µM [1] [%]	GI50 [2] [µM]	LC50 [2] [µM]	TGI [2] [µM]	growth at 10 µM [3] [%]	growth at 100 µM [4] [%]	growth at 1 µM [5] [%]	growth at 0.1 µM [6] [%]	growth at 0.01 µM [7] [%]	growth at 1 µM [8] [%]	growth at 10 µM [9] [%]	growth at 10 µM [10] [%]	growth at 0.1 µM [11] [%]	growth at 1 µM [12] [%]	growth at 0.1 µM [13] [%]	growth at 1 µM [14] [%]	growth at 100 µM [15] [%]	growth at 0.1 µM [16] [%]	growth at 0.01 µM [17] [%]	growth at 0.1 µM [18] [%]	other results
COc1ccc(-c2cc(/C=C/C(=O)c3ccc(OC)c(OC)c3)[nH]n2)cc1	-64	1.22	7.12	2.94	-97	-99	57	101	83	75	-82	-53	97	74	101	87	-100	92	95	104	GI50 [19]: 2.17 µM; LC50 (concentration killing 50% of cells) [19]: 13.8 µM; TGI [19]: 4.97 µM; growth at 1 µM [20]: 91%; growth at 1 µM [21]: 66%; growth at 0.01 µM [22]: 104%; growth at 0.1 µM [23]: 107%; growth at 0.1 µM [24]: 77%; growth at 100 µM [25]: -90%; growth at 10 µM [26]: -95%; growth at 100 µM [27]: -77%; growth at 0.1 µM [28]: 94%; growth at 0.01 µM [29]: 97%; growth at 1 µM [30]: 91%; growth at 0.01 µM [31]: 100%; growth at 0.1 µM [32]: 99%; growth at 10 µM [33]: -69%; growth at 1 µM [34]: 90%; growth at 1 µM [35]: 63%
COc1cc(C(=O)/C=C/c2cc(-c3ccc4c(c3)OCO4)n[nH]2)cc(OC)c1OC	-41	1.4	8.78	3.5	-96	-85	63	97	97	93	-62	-16	98	97	93	96	-97	90	97	98	GI50 [19]: 2.91 µM; LC50 (concentration killing 50% of cells) [19]: 37.8 µM; TGI [19]: 9.21 µM; growth at 1 µM [20]: 94%; growth at 1 µM [21]: 68%; growth at 0.01 µM [22]: 102%; growth at 0.1 µM [23]: 98%; growth at 0.1 µM [24]: 94%; growth at 100 µM [25]: -84%; growth at 10 µM [26]: -73%; growth at 100 µM [27]: -100%; growth at 0.1 µM [28]: 97%; growth at 0.01 µM [29]: 96%; growth at 1 µM [30]: 94%; growth at 0.01 µM [31]: 97%; growth at 0.1 µM [32]: 95%; growth at 10 µM [33]: -57%; growth at 1 µM [34]: 92%; growth at 1 µM [35]: 83%
COc1cc2c(cc1OC)C(=O)/C(=C/c1cc(-c3ccc4c(c3)OCO4)n[nH]1)C2	-72	1.07	5.44	2.41	-97	-94	56	103	97	84	-84	-69	96	77	93	94	-97	99	94	105	GI50 [19]: 1.82 µM; LC50 (concentration killing 50% of cells) [19]: 6.34 µM; TGI [19]: 3.4 µM; growth at 1 µM [20]: 86%; growth at 1 µM [21]: 67%; growth at 0.01 µM [22]: 102%; growth at 0.1 µM [23]: 100%; growth at 0.1 µM [24]: 98%; growth at 100 µM [25]: -79%; growth at 10 µM [26]: -92%; growth at 100 µM [27]: -98%; growth at 0.1 µM [28]: 92%; growth at 0.01 µM [29]: 102%; growth at 1 µM [30]: 93%; growth at 0.01 µM [31]: 97%; growth at 0.1 µM [32]: 99%; growth at 10 µM [33]: -87%; growth at 1 µM [34]: 105%; growth at 1 µM [35]: 55%
